Data reported in the supplement of paper PMC10307832.

Experiments:
Test in all cases: relative viability (nuclei count vs DMSO), 5 days (fraction); higher = more cells survive
[1] = compound: O=c1ncccn1[C@@H]1O[C@H](CO)[C@@H](O)[C@H]1O [Zebularine] + Cc1cc(Nc2cc(N3CCN(C)CC3)nc(Sc3ccc(NC(=O)C4CC4)cc3)n2)n[nH]1 [Tozasertib] (partner 0.1 µM)
How it was run: (§1)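 Dosing by pin tool came one day after lung cancer cell lines were seeded in 1536-well plates, using either one drug or a fixed anchor-drug dose plus five library-drug doses (not always all listed) in √10 steps. After 5 days, nuclei were counted on 4× images. Relative viability is treated-well nuclei count divided by vehicle-well nuclei count, and values are medians of duplicate plates.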

[2] = compound: O=c1ncccn1[C@@H]1O[C@H](CO)[C@@H](O)[C@H]1O [Zebularine] + O=C(c1cc(Cc2n[nH]c(=O)c3ccccc23)ccc1F)N1CCN(C(=O)C2CC2)CC1 [Olaparib] (partner 8 µM)
How it was run: as §1

[3] = compound: O=c1ncccn1[C@@H]1O[C@H](CO)[C@@H](O)[C@H]1O [Zebularine] + CCNC(=O)c1noc(-c2cc(C(C)C)c(O)cc2O)c1-c1ccc(CN2CCOCC2)cc1 [Luminespib] (partner 0.01 µM)
How it was run: as §1

[4] = compound: CC(C)CCN1c2nc(Nc3cc(F)c(O)c(F)c3)ncc2N(C)C(=O)C1C [BI-D1870] + O=C(CCCCCCC(=O)Nc1ccccc1)NO [Vorinostat] (partner 1 µM)
How it was run: as §1

| Cell Line | relative viability ([1]; first compound 1 µM) | relative viability ([1]; first compound 3.162 µM) | relative viability ([1]; first compound 10 µM) | relative viability ([1]; first compound 31.62 µM) | relative viability ([1]; first compound 100 µM) | relative viability ([2]; first compound 1 µM) | relative viability ([2]; first compound 3.162 µM) | relative viability ([2]; first compound 10 µM) | relative viability ([2]; first compound 31.62 µM) | relative viability ([2]; first compound 100 µM) | relative viability ([3]; first compound 1 µM) | relative viability ([3]; first compound 3.162 µM) | relative viability ([3]; first compound 10 µM) | relative viability ([3]; first compound 31.62 µM) | relative viability ([3]; first compound 100 µM) | relative viability ([4]; first compound 0.04 µM) | relative viability ([4]; first compound 0.1265 µM) | relative viability ([4]; first compound 0.4 µM) | relative viability ([4]; first compound 1.265 µM) | relative viability ([4]; first compound 4 µM) |
| --- | --- | --- | --- | --- | --- | --- | --- | --- | --- | --- | --- | --- | --- | --- | --- | --- | --- | --- | --- | --- |
| NCI-H2342 | 0.451 | 0.4 | 0.446 | 0.476 | 0.469 | 0.462 | 0.468 | 0.388 | 0.437 | 0.365 | 0.835 | 0.783 | 0.621 | 0.669 | 0.576 | 0.806 | 0.61 | 0.718 | 0.812 | 0.966 |
| HCC-15 | 0.308 | 0.414 | 0.339 | 0.386 | 0.179 | 0.864 | 0.652 | 0.465 | 0.371 | 0.307 | 0.297 | 0.337 | 0.211 | 0.34 | 0.216 | 0.81 | 0.782 | 0.786 | 0.987 | 0.678 |
| A-427 | 0.201 | 0.194 | 0.222 | 0.155 | 0.152 | 0.771 | 0.668 | 0.576 | 0.446 | 0.244 | 1.01 | 0.856 | 0.53 | 0.383 | 0.261 | 0.917 | 0.843 | 0.817 | 0.807 | 0.501 |
| NCI-H2228 | 0.289 | 0.168 | 0.229 | 0.246 | 0.195 | 0.737 | 0.503 |  | 0.283 | 0.236 | 0.198 | 0.147 | 0.175 | 0.226 | 0.153 | 0.889 | 0.512 | 0.824 | 0.959 | 0.32 |
| NCI-H1734 | 0.284 | 0.247 | 0.263 | 0.206 | 0.207 | 0.581 | 0.523 | 0.334 | 0.303 | 0.239 | 0.197 | 0.171 | 0.185 | 0.217 | 0.178 | 0.805 | 0.744 | 0.78 | 0.779 | 0.617 |
| PC-14 | 0.479 | 0.513 | 0.1 | 0.0922 | 0.0781 | 0.179 | 0.121 | 0.208 | 0.136 | 0.122 | 0.107 | 0.134 | 0.158 | 0.131 | 0.157 | 0.825 | 0.625 | 0.58 | 0.699 | 0.569 |
| NCI-H1915 | 0.558 | 0.44 |  | 0.533 | 0.385 | 0.266 | 0.262 | 0.243 | 0.253 | 0.197 | 0.887 | 0.818 |  | 0.772 | 0.322 | 0.55 | 0.484 | 0.513 | 0.489 | 0.436 |
| NCI-H1666 | 0.612 | 0.633 | 0.538 | 0.662 | 0.486 | 0.812 | 0.803 | 0.65 | 0.802 | 0.75 | 1.01 | 0.932 | 0.966 | 1.01 | 0.751 | 1.03 | 1.01 | 0.942 | 0.956 | 1.02 |
| HCC-366 | 0.169 | 0.112 | 0.182 | 0.132 | 0.0608 | 0.411 | 0.294 | 0.186 | 0.103 | 0.108 |  |  |  |  |  | 0.502 | 0.331 | 0.294 | 0.316 | 0.1 |
| SK-MES-1 | 1.02 | 0.991 | 0.599 | 0.611 | 0.248 | 0.947 | 0.722 | 0.479 | 0.393 | 0.268 | 0.656 | 0.755 | 0.458 | 0.347 | 0.251 | 1.16 | 0.905 | 0.933 | 0.949 | 0.691 |
| SW 1573 | 0.223 | 0.163 |  | 0.137 | 0.148 | 0.487 | 0.442 | 0.33 | 0.46 | 0.325 | 0.181 | 0.34 | 0.173 | 0.41 | 0.285 | 1.07 | 0.6 | 0.99 | 0.619 | 0.448 |
| NCI-H661 | 0.338 | 0.346 | 0.381 | 0.361 | 0.396 | 0.856 | 0.708 | 0.56 | 0.943 | 0.688 | 1.02 | 0.948 | 0.686 | 1.01 | 0.895 | 0.815 | 0.806 | 0.764 | 0.691 | 0.451 |
| PC-3 [JPC-3] | 0.963 | 0.924 | 0.485 | 0.668 | 0.473 | 1.18 | 0.984 | 0.675 | 0.673 | 0.593 | 0.79 | 0.667 | 0.553 | 0.466 | 0.493 | 0.817 | 0.795 | 0.81 | 0.625 | 0.394 |
| NCI-H1623 | 0.513 | 0.437 | 0.39 | 0.535 | 0.389 |  |  |  |  |  | 0.629 | 0.503 | 0.592 | 0.468 | 0.293 |  |  |  |  |  |
| Calu-6 |  |  |  |  |  | 0.739 | 0.467 | 0.409 | 0.331 | 0.253 |  |  |  |  |  |  |  |  |  |  |
| LC-2-ad | 0.413 | 0.427 | 0.347 | 0.422 | 0.396 | 0.729 | 0.681 | 0.434 | 0.201 | 0.254 | 1.02 | 1.01 | 0.699 | 0.73 | 0.541 | 0.696 | 0.646 | 0.701 | 0.705 | 0.56 |
| CAL-12T | 0.379 | 0.369 | 0.241 | 0.379 | 0.247 | 0.837 | 0.721 | 0.548 | 0.444 | 0.273 | 0.49 | 0.717 | 0.244 | 0.355 | 0.582 | 1.07 | 0.675 | 0.716 | 0.666 | 0.352 |
| RERF-LC-KJ | 0.533 | 0.433 | 0.458 | 0.553 | 0.473 | 0.989 | 0.874 | 0.655 | 1.03 | 0.845 | 1.29 | 1.17 | 0.827 | 1.54 | 1.53 | 0.66 | 0.633 | 0.669 | 0.642 | 0.47 |
